The record followed here is patent US20030171306A1, “Cancer treatment method” (priority 2002, published 2003).

SMILES strings stand for the structures. Where a name gives a salt, the structure may show the parent alone.

For test [1], the system named is CCL64 mink lung epithelial cells. The test is described as follows: Protection of mink lung epithelial cells from paclitaxel, sulforhodamine B stain. It is filed as cell-based. To be noted: PDE4 inhibitor 1 μM plus forskolin 100 μM 24 h, then paclitaxel 10 nM 48 h. How it is done: CCL64 mink lung epithelial cells (ATCC #CCL-64) were grown in DMEM supplemented with 10% FBS and 1% penicillin-streptomycin and seeded into 96-well plates. After overnight incubation at 37° C. cells were treated with 100 μM forskolin in combination with each of the PDE4 inhibitors (1 μM). After 24 hours of treatment, paclitaxel was added to wells at various concentrations up to 10 nM. Time zero control plates were harvested by staining with Sulforhodamine B (Skehan P. et. al., (1990), J. Nat'l Cancer Inst 82:1107-12.) After an additional 48 hours of incubation at 37° C., the plates were harvested and stained with sulforhodamine B. The absorbance of the samples was read at the optical density of 562 nm. The no-drug controls were set to 100% and values were normalized to time zero control. As indicated in Example 8, cells were pre-treated with forskolin plus various PDE4 inhibitors (1 μM) and then challenged with paclitaxel at various concentrations. The sulforhodamine B signal from the cells was expressed as percent of control (no-drug, vehicle only). An increase in signal, indicating protection, ranged from 85% to 130% with the cells pre-treated with forskolin plus a particular PDE4 inhibitor and followed by a paclitaxel challenge at 10 nM.
Background: Sulforhodamine B stains cellular protein and so reports cell mass.

Test [2] deals with multiple stage neutrophil progenitors. The test is described as follows: CD15 neutrophil antigen cell-based ELISA (CELISA). Conditions: for CD15 signal from the cell cultures with increasing concentrations of the drug: anti-neoplastic drug on expanded CD34+ cells, 24 h. On the technique in general: In an ELISA, binding on a coated surface is turned into a signal by an enzyme label.
Text: Three methods, more completely described in the following examples, were utilized for a determination of cell survival and ability to produce daughter cells of primary human neutrophil progenitors: (1) a FACS assay which determined the percent of live cells by size and granularity; (2) a colony forming assay which measured the number of CFU-GM progenitors (a specific early stage neutrophil progenitor); and (3) a cell-based ELISA which measured CD15 antigen the value of which was proportional to the number of neutrophil lineage cells. This assay allows evaluation of neutrophil progenitors (cells that can divide and produce daughter neutrophil-lineage cells) at multiple stages of differentiation.
Expanded CD34^+ stem cells were isolated as described in Example 2 and grown in complete growth media. The expanded CD34^+ cells were treated with DMSO or rolipram plus forskolin as previously described. […] After the treatment, the cells were counted, washed twice with 4 ml of HBSS supplemented with 2% FBS, and resuspended in complete growth media. The expression of CD15 antigen was used as a measure of the number of neutrophil lineage cells expanded from surviving progenitors of multiple stages of differentiation.
The cells were plated at a set number into 96-well plates in 100 μl volume per well of complete media. […] The plates were harvested at different time points by centrifuging at 450 G for 10 minutes at room temperature (RT) and the cells were washed several twice in HBSS by centrifugation of the plates. The cells were removed by suspension twice in HBSS with 5 mM EDTA with 100 μl per well and transfer of the total 200 μl volume to capture plates (Costar DNA-bind, #2498) that had been pretreated with 1% gluteraldehyde and stored (Warren et al., 1995 Stem Cells 13:167-174).
For CELISA, the preservative solution (PBS, 0.1% BSA, 0.1% azide) was removed from the capture plate and the wells were washed with 100 μl PBS. […] The plates were washed twice with 300 μl PBS/well and incubated with a secondary antibody (goat anti-mouse IgM-biotin, Sigma B-9265, 0.105 μg/well, 100 μl PBS with 5% goat sera) at RT for 60 min. After three to six 200 μl/well washes, strepavidin-horseradish peroxidase (Pierce 21126, 0.1 μg/well in a 1% solution of stable peroxide buffer, Pierce 34062) was added. The plates were incubated for ten minutes and washed three to six times with 200 μl/well. For the final detection step, the chemiluminescent reagent Supersignal® Ultra (Pierce 34075) prepared just prior to use by mixing equal parts of the luminol enhancer and the stable peroxide was added to the plates (100 μl per well) and gently mixed for five minutes at RT. The plates were read on a Wallace Victor II machine for one second for chemiluminescence at 425 nm.
The data from the Wallac Victor were transferred to Excel for analysis. Averages of replicate wells from treated cells were calculated along with standard error of the mean (sem) of the counts minus the background signal from replicate wells with media only (no cells).

The test system of test [3] is specific early neutrophil progenitors (CFU-GMs). As to the kind of experiment: CFU-GM colony forming assay. It is filed as cell-based, human. Conditions: for number of CFU-GM colonies with increasing amounts of the drug: anti-neoplastic drug on expanded CD34+ cells, 24 h, colonies counted after 12 to 14 days. How it is done:
Expanded CD34^+ cells, prepared according to the procedure of Example 2, were isolated and pretreated with DMSO or rolipram plus forskolin as described in Example 2. […] The cells were then plated in a semi solid growth medium for the growth of CFU-GMs following a published method with the exception that the G-CSF (10 ng/ml) was included in place of GM-CSF and erythropoietin (Dornsife, R E et al., Antimicrob Agents Chemother, 35: 322-328, (1991); Dornsife R E; Averett D R., Antimicrob Agents Chemother, 40(2): 514-519, (1996)). The CFU-GMs were counted after 12 to 14 days. The results are depicted in FIG. 3.

Test [4] relates to expanded CD34+ stem cells. As to the kind of experiment: Flow cytometric (FACS) evaluation of surviving and apoptotic fractions of expanded CD34+ cells. In kind it is cell-based, human. How it is done:
A T-test analysis ([…], with application of either equal or unequal variance [difference in standard error of the mean (sem) < or >3-fold, respectively) was performed to compare between treatment groups to determine if statistically significant differences existed (MS Excel, SAS JMP).
For orientation: In flow cytometry, cells or beads pass a laser one at a time.

Test [5] relates to human A549 lung tumor line. The test is described as follows: Tumor cell growth after chemoprotectant regimen and paclitaxel, sulforhodamine B. It is filed as cell-based. Conditions: for effect of chemoprotectant regimen on paclitaxel inhibition of tumor cell growth: forskolin 100 μM plus PDE4 inhibitor 1 μM, then paclitaxel 100 nM 24 h. How it is done: (§1) The human tumor cell lines HT-29 (colon: ATCC #HTB 38), RKO (colon, ATCC #HTB 130), lines A549 (lung, ATCC #CCL 185), and MDA468 (breast, ATCC #HTB 132) were obtained from the American Type Culture Collection and maintained in DMEM containing 10% FBS. Tumor cells were grown at 37° C. in a humidified atmosphere of 5% CO2. Adherent tumor cells were seeded into 96 well plates and incubated for six hours to allow for attachment. After six hours the chemoprotectants forskolin (100 μM) plus rolipram (1 μM) or forskolin (100 μM) plus ariflo (1 μM) were added. After overnight incubation, paclitaxel (100 nM) was added for 24 hours. Cells were then washed free of chemoprotectants and paclitaxel, placed in fresh media, and grown for 5 days. Growth was measured daily using sulforhodamine B (Skehan P. et. al., (1990), J. Nat'l Cancer Inst 82:1107-12). The results are depicted in FIG. 8.

In test [6] the test system is human HT-29 colon tumor line. The test is described as above. Conditions: forskolin 100 μM plus PDE4 inhibitor 1 μM, then paclitaxel 100 nM 24 h, versus DMSO. In kind it is cell-based. As for the experimental part:
as §1

Test [7] relates to human RKO colon tumor line. Described as above. It is filed as cell-based. To be noted: forskolin 100 μM plus PDE4 inhibitor 1 μM, then paclitaxel 100 nM 24 h, versus DMSO. How it is done: as §1
Test [8] deals with normal progenitor cells. As to the kind of experiment: Cell based assays utilized herein, PDE4 inhibitor used alone. To be noted: without forskolin.

With `O=c1c2cccnc2n(-c2cccc([N+](=O)[O-])c2)c(=O)n1Cc1ccncc1` [RS-25344], in test [1], the “Sulforhodamine B signal (survival) as percent of no-drug control” value worked out at 105%.

Consider `CN(Cc1cnc2nc(N)nc(N)c2n1)c1ccc(C(=O)N[C@@H](CCC(=O)O)C(=O)O)cc1` [methotrexate, N-[4[[(2,4-diamino-6-pteridinyl)methyl]methylamino]benzoyl]-L-glutamic acid], for which the “CD15 signal from the cell cultures with increasing concentrations of the drug” value in test [2] is “decreased”.

As to `COc1ccc(C(=O)Nc2c(Cl)cncc2Cl)cc1OC1CCCC1` [Piclamilast, N-(3,5-dichloropyrid-4-yl)-3-cyclopentyloxy-4-methoxybenzamide], in test [1], the “Sulforhodamine B signal (survival) as percent of no-drug control” value came out at 130%.

In the case of `CCC1=C[C@@H]2CN(C1)Cc1c([nH]c3ccccc13)[C@@](C(=O)OC)(c1cc3c(cc1OC)N(C)[C@H]1[C@@](O)(C(=O)OC)[C@H](OC(C)=O)[C@]4(CC)C=CCN5CC[C@]31[C@@H]54)C2` (relative stereo) [Vinorelbine, 3′,4′-didehydro-4′-deoxy-C′-norvincaleukoblastine [R-(R*,R*)-2,3-dihydroxybutanedioate (1:2)(salt)]], the “CD15 signal from the cell cultures with increasing concentrations of the drug” value in test [2] is “decreased”.

As to `COC(=O)N1C[C@@H](c2ccc(OC)c(OC3CCCC3)c2)[C@](C)(C(C)=O)C1` [GI193600X], in test [1], the “Sulforhodamine B signal (survival) as percent of no-drug control” value is given as 120%.

As for `COC(=O)c1cccc(-n2c(=O)n(Cc3ccccc3)c(=O)c3cccnc32)c1` [CP-77059], the “Sulforhodamine B signal (survival) as percent of no-drug control” value in test [1] is recorded as 85%.

With `O=c1[nH]cc(F)c(=O)[nH]1` [5-fluorouracil, 5-fluoro-2,4-(1-H,3H) pyrimidinedione], the “number of CFU-GM colonies with increasing amounts of the drug” value in test [3] is given as “decreased in a dose dependent manner”. In addition, the “CD15 signal from the cell cultures with increasing concentrations of the drug” value in test [2] is on record as “decreased”.

As for `CC(=O)O[C@H]1C(=O)[C@@]2(C)[C@H]([C@H](OC(=O)c3ccccc3)[C@]3(O)C[C@H](OC(=O)[C@H](O)[C@@H](NC(=O)c4ccccc4)c4ccccc4)C(C)=C1C3(C)C)[C@]1(OC(C)=O)CO[C@@H]1C[C@@H]2O` [Paclitaxel, 5β,20-epoxy-1,2α,4,7β,10β,13α-hexa-hydroxytax-11-en-9-one 4,10-diacetate 2-benzoate 13-ester with (2R,3S)-N-benzoyl-3-phenylisoserine], the surviving cell fraction amounted to 45% in test [4] (DMSO pretreatment only 24 h, then paclitaxel 30 nM 24 h); 27% in test [4] (DMSO pretreatment only 24 h, then paclitaxel 100 nM 24 h); 23% in test [4] (DMSO pretreatment only 24 h, then paclitaxel 300 nM 24 h); 18% in test [4] (DMSO pretreatment only 24 h, then paclitaxel 600 nM 24 h). The “number of CFU-GM colonies with increasing amounts of the drug” value in test [3] is recorded as “did not exhibit a good dose response”. Further, the “inhibition of tumor cell growth” value in test [5] (paclitaxel 100 nM 24 h) is “not completely inhibited”. Further, in test [2], the “CD15 signal from the cell cultures with increasing concentrations of the drug” value is on record as “decreased”.

On to `COc1cc([C@@H]2c3cc4c(cc3[C@@H](O[C@@H]3O[C@@H]5CO[C@@H](C)O[C@H]5[C@H](O)[C@H]3O)[C@H]3COC(=O)[C@H]23)OCO4)cc(OC)c1O` [Etoposide, 4′-demethyl-epipodophyllotoxin 9[4,6-0-(R)-ethylidene-β-D-glucopyranoside]], for which the “number of CFU-GM colonies with increasing amounts of the drug” value in test [3] is “decreased in a dose dependent manner”. Moreover, the “CD15 signal from the cell cultures with increasing concentrations of the drug” value in test [2] is given as “decreased”.

For `COc1ccc([C@]2(C#N)CC[C@@H](C(=O)O)CC2)cc1OC1CCCC1` [Ariflo, cis-4-cyano-4-[3-(cyclopentyloxy)-4-methoxyphenyl]cyclohexane-1-carboxylic acid], the “Sulforhodamine B signal (survival) as percent of no-drug control” value in test [1] is 110%. Besides, the entries for the “effect of chemoprotectant regimen on paclitaxel inhibition of tumor cell growth” value in test [5], in test [6] and in test [7] were “no additional protection”, “did not effect the inhibition of tumor cell growth” and “did not effect the inhibition of tumor cell growth”, respectively.

Regarding `CCCCn1c(=O)c2c(ncn2CC(C)=O)n(CCCC)c1=O` [Denbufylline, 7-acetonyl,1,3dibutylxanthine], the “Sulforhodamine B signal (survival) as percent of no-drug control” value in test [1] was determined as 95%.

Regarding `CC[C@@]1(O)C(=O)OCc2c1cc1n(c2=O)Cc2cc3c(CN(C)C)c(O)ccc3nc2-1` [topotecan, (S)-10-[(dimethylamino)methyl]-4-ethyl-4,9-dihydroxy-1H-pyrano[3′,4′,6,7]indolizino[1,2-b]quinoline-3,14(4H,12H)-dione monohydrochloride], the “CD15 signal from the cell cultures with increasing concentrations of the drug” value in test [2] is “decreased”.

With `COc1ccc(C2CNC(=O)C2)cc1OC1CCCC1` (stereo not shown) [Rolipram], the “apoptotic fraction in paclitaxel treated cells compared with DMSO pretreatment” value in test [4] (pretreatment with rolipram plus forskolin) was “significantly reduced the apoptotic fraction”. In addition, the surviving cell fraction was 86% in test [4] (rolipram 1 μM plus forskolin 100 μM 24 h, then paclitaxel 30 nM 24 h); 81% in test [4] (rolipram 1 μM plus forskolin 100 μM 24 h, then paclitaxel 100 nM 24 h); 63% in test [4] (rolipram 1 μM plus forskolin 100 μM 24 h, then paclitaxel 300 nM 24 h); 59% in test [4] (rolipram 1 μM plus forskolin 100 μM 24 h, then paclitaxel 600 nM 24 h). Also, the “survival of CFU-GM progenitors” value in test [3] (rolipram plus forskolin prior to 5-fluorouracil, etoposide or paclitaxel, versus DMSO) was “increased the survival of CFU-GM progenitors”. Also, in test [1], the “Sulforhodamine B signal (survival) as percent of no-drug control” value was 110%. Also, the “effect of chemoprotectant regimen on paclitaxel inhibition of tumor cell growth” value in test [5] was “no additional protection”; in test [6] it was “did not effect the inhibition of tumor cell growth”; in test [7] it was “did not effect the inhibition of tumor cell growth”. In addition, in test [8], the protective effect entry was “little protective effect”. The “effect of pretreatment on toxicity towards neutrophil progenitors compared to DMSO” value in test [2] (rolipram plus forskolin, then carboplatin) is on record as “no significant difference”; in test [2] (rolipram plus forskolin, then cisplatin), “significantly increase the toxicity”; in test [2] (rolipram plus forskolin, then doxorubicin) it was “significantly increase the toxicity”. Further, in test [2] (rolipram plus forskolin, then paclitaxel, 5-FU, etoposide, vinblastine, vinorelbine, methotrexate or topotecan, 99% confidence), the “CD15 signal after pretreatment versus DMSO” value was “increased the CD15 signal antigen to a statistically significant level”.

Consider `CC[C@]1(O)C[C@@H]2CN(CCc3c([nH]c4ccccc34)[C@@](C(=O)OC)(c3cc4c(cc3OC)N(C)[C@H]3[C@@](O)(C(=O)OC)[C@H](OC(C)=O)[C@]5(CC)C=CCN6CC[C@]43[C@@H]65)C2)C1` [Vinblastine, vincaleukoblastine sulfate], for which, in test [2], the “CD15 signal from the cell cultures with increasing concentrations of the drug” value is “decreased”.

Consider `CCn1c(=O)c2ccccc2n(-c2cccc([N+](=O)[O-])c2)c1=O` [Nitraquazone], for which the “Sulforhodamine B signal (survival) as percent of no-drug control” value in test [1] is listed as 115%.
